# Measured values: US6544991B2, “Compositions and methods for treating bacterial infections” (priority 2000, dated 2003)
# Experiments:
# MRSA strains = assay: MIC by agar dilution or microbroth dilution method (NCCLS); assay type: cell-based, Staph. aureus
# Procedure: (§1) Bacterial isolates were obtained from human infections. The isolates were maintained frozen in a liquid nitrogen freezer and plated on Trypticase Soy Agar (TSA) plates supplemented with 5% sheep blood. The quality control strain Staph. aureus 29213 was originally acquired from the American Type Culture Collection (Rockville, Md.).
# (§2) MICs were determined by an agar dilution method or microbroth dilution method recommended by NCCLS. Synergy was assessed by agar dilution checker-board method. Minimal inhibitory concentrations (MICS) for each separate drug were determined. The fractional inhibitory concentration (FIC) values were calculated by the MIC of Drug A (e.g., sulbactam/ampicillin) and Drug B (e.g., linezolid or arbekacin) in combination/MIC of Drug A or B alone. The FIC index was determined according to the following formula: [formula]
# VRSA strains = assay: MIC by agar dilution or microbroth dilution method (NCCLS), VRSA strains; assay type: cell-based, Staph. aureus; conditions: VRSA strains (n = 10)
# Procedure: as §1, §2
# In total, 48 MRSA strains were tested, including ten VRSA strains isolated from five different countries in the world, 33 MRSA strains isolated from ten Japanese university hospitals, and five MRSA type strains from Juntendo University, Department of Bacteriology, Tokyo, Japan.
# Staph. aureus 29213 = assay: MIC, quality control strain; assay type: cell-based
# Procedure: as §1, §2
compound,measurement,setting,value
"C[C@@H](O)[C@H]1C(=O)N2C(C(=O)O)=C(SCCN=CN)C[C@H]12 [IPM, imipenem]",MICs 50%,MRSA strains; MRSA strains (n = 38),16 mg/L
same,MICs 90%,MRSA strains; MRSA strains (n = 38),64 mg/L
same,MICs Range,MRSA strains; MRSA strains (n = 38),>0.125 to 128 mg/L
same,MIC Values,MRSA strains; strain 85/2082,2 µg/mL
same,MIC Values,MRSA strains; strain 99.3700W,32 µg/mL
same,MIC Values,MRSA strains; strain 99.3759V,64 µg/mL
same,MIC Values,MRSA strains; strain AMC 11094,32 µg/mL
same,MIC Values,MRSA strains; strain BM12612(new),128 µg/mL
same,MIC Values,MRSA strains; strain H1,64 µg/mL
same,MIC Values,MRSA strains; strain HIP 5827,64 µg/mL
same,MIC Values,MRSA strains; strain HIP 5836,8 µg/mL
same,MIC Values,MRSA strains; strain HIP 6297,1 µg/mL
same,MIC Values,MRSA strains; strain HIP 7737,32 µg/mL
same,MIC Values,MRSA strains; strain JSCC 340,64 µg/mL
same,MIC Values,MRSA strains; strain JSCC 351,32 µg/mL
same,MIC Values,MRSA strains; strain JSCC 363,32 µg/mL
same,MIC Values,MRSA strains; strain JSCC 381,32 µg/mL
same,MIC Values,MRSA strains; strain JSCC 390,32 µg/mL
same,MIC Values,MRSA strains; strain JSCC 401,64 µg/mL
same,MIC Values,MRSA strains; strain JSCC 413,16 µg/mL
same,MIC Values,MRSA strains; strain JSCC 431,1 µg/mL
same,MIC Values,MRSA strains; strain JSCC 440,16 µg/mL
same,MIC Values,MRSA strains; strain JSCC 451,64 µg/mL
same,MIC Values,MRSA strains; strain JSCC 463,64 µg/mL
same,MIC Values,MRSA strains; strain JSCC 481,64 µg/mL
same,MIC Values,MRSA strains; strain JSCC 490,32 µg/mL
same,MIC Values,MRSA strains; strain JSCC 501,32 µg/mL
same,MIC Values,MRSA strains; strain JSCC 513,8 µg/mL
same,MIC Values,MRSA strains; strain JSCC 531,32 µg/mL
same,MIC Values,MRSA strains; strain JSCC 540,64 µg/mL
same,MIC Values,MRSA strains; strain JSCC 551,16 µg/mL
same,MIC Values,MRSA strains; strain JSCC 563,≦0.125 mcg/mL
same,MIC Values,MRSA strains; strain JSCC 581 (lacks the mecA gene),≦0.125 mcg/mL
same,MIC Values,MRSA strains; strain JSCC 590 (lacks the mecA gene),≦0.125 mcg/mL
same,MIC Values,MRSA strains; strain JSCC 601,1 µg/mL
same,MIC Values,MRSA strains; strain JSCC 640,32 µg/mL
same,MIC Values,MRSA strains; strain JSCC 651,32 µg/mL
same,MIC Values,MRSA strains; strain JSCC 663,8 µg/mL
same,MIC Values,MRSA strains; strain JSCC 681,8 µg/mL
same,MIC Values,MRSA strains; strain JSCC 690,16 µg/mL
same,MIC Values,MRSA strains; strain JSCC 701,32 µg/mL
same,MIC Values,MRSA strains; strain JSCC 713,32 µg/mL
same,MIC Values,MRSA strains; strain JSCC 731,32 µg/mL
same,MIC Values,MRSA strains; strain JSCC 740,16 µg/mL
same,MIC Values,MRSA strains; strain JSCC 751,32 µg/mL
same,MIC Values,MRSA strains; strain JSCC 763,8 µg/mL
same,MIC Values,MRSA strains; strain JSCC 781,32 µg/mL
same,MIC Values,MRSA strains; strain JSCC 870,16 µg/mL
same,MIC Values,MRSA strains; strain LIM 2,8 µg/mL
same,MIC Values,MRSA strains; strain Mu 3,128 µg/mL
same,MIC Values,MRSA strains; strain Mu 50,64 µg/mL
same,MIC Values,MRSA strains; strain N315,1 µg/mL
same,MIC Values,MRSA strains; strain NCTC 10442,64 µg/mL
same,MICs 50%,VRSA strains,32 mg/L
same,MICs 90%,VRSA strains,64 mg/L
same,MICs Range,VRSA strains,1 to 128 mg/L
same,MIC Values,"Staph. aureus 29213; strain ATCC 29213, control sample (Ex. 26)",≦0.125 mcg/mL
same,MIC Values,"Staph. aureus 29213; strain ATCC29213, control sample (Ex. 37)",≦0.125 mcg/mL
